Activity calls are given as the source filed them. The calls are words filed in the database; no cut-off is given here.
Experiments:
[1] = test system: Huh-7; test: Induction of apoptosis in human Huh-7 cells assessed as decrease in bcl-2 level at 10 nM incubated for 48 hrs in presence of gamabufotalin by immunoblot analysis; format: functional, cell-based
[2] = test system: Huh-7; test: Induction of autophagic flux in human Huh-7 cells harbouring mCherry-egfp-LC3 assessed as increase in yellow puncta ratio at 10 nM by fluorescence imaging based assay; format: functional, cell-based
[3] = test system: Hep 3B2; test: Induction of autophagic flux in human Hep3B cells assessed as rescue of LC3-II accumulation at 10 uM incubated for 48 hrs in presence of gamabufotalin by Western blot analysis; format: functional, cell-based
[4] = test system: Hep 3B2; test: Induction of apoptosis in human Hep3B cells assessed as viable cells at 10 nM incubated for 48 hrs in presence of gamabufotalin by Annexin V-FITC/PI staining based flow cytometry method (reference value: 94.0%); format: functional; conditions: read-out: Activity
[5] = test system: Huh-7; test: Induction of apoptosis in human Huh-7 cells assessed as increase in caspase-3 level at 10 nM incubated for 48 hrs in presence of gamabufotalin by immunoblot analysis; format: functional, cell-based
[6] = test system: Hep 3B2; test: Antitumor activity against human Hep3B cells xenografted in nude mouse model assessed as upregulation of cleaved caspase-3 expression at 5 mg/kg,ip administered every second day for 3 weeks by Western blot analysis; format: functional, organism-based
[7] = test system: Hep 3B2; test: Induction of apoptosis in human Hep3B cells assessed as late apoptotic cells at 25 nM incubated for 48 hrs by Annexin V-FITC/PI staining based flow cytometry method (reference value: 2.2%); format: functional
[8] = test system: Hep 3B2; test: Induction of autophagy in human Hep3B cells assessed as upregulation of p62 at 25 uM incubated for 48 hrs in presence of 4,6-dimorpholino-N-(4-nitrophenyl)-1,3,5-triazin-2-amine by immunoblot analysis; format: functional, cell-based
[9] = test system: Hep 3B2; test: Induction of apoptosis in human Hep3B cells assessed as necrotic cells at 20 nM incubated for 48 hrs by Annexin V-FITC/PI staining based flow cytometry method (reference value: 0.2%); format: functional
[10] = Toxicity in mouse assessed as effect on serum BUN level at 5 mg/kg,ip administered every second day for 3 weeks by H and E staining based microscopic method; format: organism-based; conditions: in vivo, 504 h
[11] = test system: Hep 3B2; test: Induction of apoptosis in human Hep3B cells assessed as late apoptotic cells at 25 nM measured after 48 hrs in presence of Z-VAD-FMK by annexin V-FITC/Propidium iodide staining based flow cytometric analysis (reference value: 2.4%); format: functional
[12] = test system: Hep 3B2; test: Induction of apoptosis in human Hep3B cells assessed as late apoptotic cells at 25 nM incubated for 48 hrs by Annexin V-FITC/PI staining based flow cytometry method (reference value: 2.6%); format: functional
[13] = test system: Huh-7; test: Induction of morphological changes in human Huh-7 cells assessed as round cell morphology at upto 25 nM incubated for 48 hrs by bright field imaging analysis; format: functional, cell-based
[14] = test system: Huh-7; test: Induction of apoptosis in human Huh-7 cells assessed as viable cells at 25 nM incubated for 48 hrs by Annexin V-FITC/PI staining based flow cytometry method (reference value: 91.5%); format: functional; conditions: read-out: Activity
[15] = test system: Huh-7; test: Induction of apoptosis in human Huh-7 cells assessed as viable cells at 25 nM measured after 48 hrs by annexin V-FITC/Propidium iodide staining based flow cytometric analysis (reference value: 91.7%); format: functional; conditions: read-out: Activity
[16] = test system: Hep 3B2; test: Antiproliferative activity against human Hep3B cells assessed as cell viability incubated for 24 hrs by CCK-8; format: functional, cell-based
[17] = test system: Hep 3B2; test: Induction of morphological changes in human Hep3B cells assessed as adherent cells at upto 25 nM incubated for 48 hrs by bright field imaging analysis; format: functional, cell-based
[18] = test system: Huh-7; test: Induction of autophagy in human Huh-7 cells assessed as restoration of ULK1 phosphorylation expression at 25 uM incubated for 48 hrs in presence of 4,6-dimorpholino-N-(4-nitrophenyl)-1,3,5-triazin-2-amine by immunoblot analysis; format: functional, cell-based
[19] = test system: Hep 3B2; test: Induction of autophagy in human Hep3B cells harbouring mCherry-egfp-LC3 assessed as reduction in yellow puncta ratio at 25 nM incubated for 15 mins in presence of 4,6-dimorpholino-N-(4-nitrophenyl)-1,3,5-triazin-2-amine by laser scanning confocal microscopic analysis; format: functional, cell-based
[20] = test system: Hep 3B2; test: Induction of apoptosis in human Hep3B cells assessed as upregulation of cleaved caspase-3 level […] incubated for 48 hrs in presence of 4,6-dimorpholino-N-(4-nitrophenyl)-1,3,5-triazin-2-amine by immunoblot analysis; format: functional, cell-based
[21] = test system: Hep 3B2; test: Induction of apoptosis in human Hep3B cells assessed as upregulation of bax level […] incubated for 48 hrs in presence of 4,6-dimorpholino-N-(4-nitrophenyl)-1,3,5-triazin-2-amine by immunoblot analysis; format: functional, cell-based
[22] = test system: Huh-7; test: Induction of apoptosis in human Huh-7 cells assessed as early apoptotic cells at 20 nM incubated for 48 hrs by Annexin V-FITC/PI staining based flow cytometry method (reference value: 1.7%); format: functional
[23] = test system: Hep 3B2; test: Induction of autophagy in human Hep3B cells assessed as rescue of ULK1 phosphorylation level at upto 25 nM incubated for 48 hrs in presence of chloroquine by immunoblot method; format: functional, cell-based
[24] = Toxicity in mouse assessed as effect on spleen at 5 mg/kg,ip administered every second day for 3 weeks by H and E staining based microscopic method; format: organism-based; conditions: in vivo, 504 h
[25] = test system: Hep 3B2; test: Antitumor activity against human Hep3B cells xenografted in nude mouse model assessed as downregulation of Bcl-2 expression at 5 mg/kg,ip administered every second day for 3 weeks by Western blot analysis; format: functional, organism-based
[26] = test system: Hep 3B2; test: Induction of apoptosis in human Hep3B cells assessed as necrotic cells at 25 nM incubated for 48 hrs in presence of 4,6-dimorpholino-N-(4-nitrophenyl)-1,3,5-triazin-2-amine by Annexin V-FITC/PI staining based flow cytometry method (reference value: 0.7%); format: functional
[27] = test system: Huh-7; test: Induction of apoptosis in human Huh-7 cells assessed as upregulation of cleaved PARP level […] incubated for 48 hrs in presence of 4,6-dimorpholino-N-(4-nitrophenyl)-1,3,5-triazin-2-amine by immunoblot analysis; format: functional, cell-based
[28] = test system: Huh-7; test: Induction of apoptosis in human Huh-7 cells assessed as increase in cleaved PARP expression at upto 25 nM incubated for 48 hrs by Western blot analysis; format: functional, cell-based
[29] = test system: Huh-7; test: Induction of autophagic flux in human Huh-7 cells assessed as increase in intracellular vesicles at 25 nM incubated for 48 hrs by transmission electron microscopic analysis; format: functional, cell-based
[30] = test system: Hep 3B2; test: Induction of autophagic flux in human Hep3B cells assessed as decrease in p62 expression at upto 25 nM incubated for 48 hrs by Western blot analysis; format: functional, cell-based
[31] = test system: Huh-7; test: Induction of apoptosis in human Huh-7 cells assessed as viable cells at 25 nM incubated for 48 hrs in presence of chloroquine by Annexin V-FITC/PI staining based flow cytometry method (reference value: 91.5%); format: functional; conditions: read-out: Activity
[32] = test system: Hep 3B2; test: Induction of autophagy in human Hep3B cells assessed as rescue of mTOR phosphorylation level at upto 25 nM incubated for 48 hrs in presence of chloroquine by immunoblot method; format: functional, cell-based
[33] = Toxicity in mouse assessed as effect on kidney at 5 mg/kg,ip administered every second day for 3 weeks by H and E staining based microscopic method; format: organism-based; conditions: in vivo, 504 h
[34] = test system: Hep 3B2; test: Inhibition of colony formation in human Hep3B cells at upto 25 uM incubated for 48 hrs by crystal violet staining based analysis; format: functional, cell-based

In the case of `CCN(CC)CCCC(C)Nc1ccnc2cc(Cl)ccc12` (centres undefined) [CHLOROQUINE], the Activity [1] is reported as “Active”, the Activity [2] is reported as “Active” and the Activity [3] is reported as “Active”. For the same compound, the viability at 0.01 µM [4] was 63.9% and the Activity [5] was “Active”.
With `C[C@]12CC[C@H](O)C[C@H]1CC[C@@H]1[C@@H]2[C@H](O)C[C@]2(C)[C@@H](c3ccc(=O)oc3)CC[C@]12O` [GAMABUFOTALIN] the Activity [6] was “Active”, the Activity [7] was 10.9% and the Activity [8] was “Active”. For the same compound, the Activity [9] was 0.3%, the Activity [10] was “Non-Toxic” and the Activity [11] was 3.5%. For the same compound, the Activity [12] was 5.2%, the Activity [13] was “Active” and the viability at 0.025 µM [14] was 80%. The viability at 0.025 µM [15] was 72%, the IC50 [16] was 27 nM and the Activity [17] was “Active”. The Activity [18] was “Active”, the Activity [19] was “Active” and the Activity [20] was “Active”. The Activity [21] was “Active”, the Activity [22] was 5.5% and the Activity [23] was “Active”. For the same compound, the Activity [24] was “Non-Toxic”, the Activity [25] was “Active” and the Activity [26] was 1.7%. For the same compound, the Activity [27] was “Active”, the Activity [28] was “Active” and the Activity [29] was “Active”. The Activity [30] was “Active”, the viability at 0.025 µM [31] was 65.4% and the Activity [32] was “Active”. The Activity [33] was “Non-Toxic” and the inhibition [34] was “Active”.

Reference: ChEMBL document CHEMBL5257089, “Gamabufotalin Induces Apoptosis and Cytoprotective Autophagy through the mTOR Signaling Pathway in Hepatocellular Carcinoma” (J Nat Prod, 2023)
